In brackets after ≈: the same amount, converted by molar mass. Entries after “also recorded” stand apart in the source; their conditions may differ.
Legend:
[1] = Solubility in water of linker-payloads
S. aureus NRS384 = assay: Broth minimum inhibitory concentration (MIC) assay; assay type: cell-based; conditions: S. aureus NRS384, TSB, 24h, 37° C.
Experimental: To test the efficacy of rifamycin analogs of the disclosure in vitro, a broth growth inhibition assay was developed. For the assay, S. aureus NRS384 was grown in Tryptic Soy Broth (TSB) overnight, then sub-cultured 1:50 in fresh TSB and grown for an additional two hours. The culture was then pelleted via centrifugation and washed twice in PBS. The culture was then diluted to 1×10^4 cfu/mL in TSB and 50 μL of the suspension was added per well to a 96 well microtiter dish in duplicate. A dilution series of the indicated antibiotic (an analog according to the disclosure or a previously known analog Rifampicin) was added 1:1 for a final starting concentration of 1×10^−5 M with 1:3 dilutions.

[2] = system: intracellular S. aureus NRS384 in THP-1 macrophages; assay: Intracellular S. aureus killing assay with rifamycin analogs (Example 44); assay type: cell-based; conditions: for intracellular S. aureus killing (in words): infected THP-1 macrophages, 2h treatment, compared to rifampicin; for Intracellular killing MIC: lowest concentration that resulted in intracellular S. aureus eradication, THP-1 macrophages
Experimental: The rifamycin analog compounds' activity against S. aureus was tested in an intracellular “killing” assay.
THP-1 monocytic cell line was grown in media (RMPI+10% FBS+1% Penicillin/Streptomycin), then seeded at a density of 1e5 cells/well in a 96 well plate and differentiated into macrophages for three days prior to infection using 200 nM PMA. An overnight culture of S. aureus NRS384 was grown in RPMI, washed twice with PBS and resuspended at 1e7 cfu/mL in PBS. THP-1 were washed with warm media (RMPI without FBS) to remove the Penicillin/Streptomycin and then infected with the S. aureus suspension at a multiplicity of infection of 10:1 (S. aureus: macrophages). Plates were spun at 300×g for 5 minutes to synchronize adhesion of the bacteria, then incubated at 37° C. for 2 hours. Free-floating bacteria were removed by washing 2× with warm media and remaining extracellular S. aureus were killed by addition of media containing gentamicin (50 ug/mL). After 1h, media was aspirated and the indicated compound was added to infected macrophages in media containing 50 μg/mL gentamicin to prevent extracellular growth of S. aureus. After 2h, plates were washed 2× with warm RPMI without FBS, and 100 ul of THP-1 lysis buffer (0.1% Triton in PBS) was added to each well. S. aureus survival was enumerated by colony forming units through serial dilution and plating onto TSA.

Row | S. aureus Broth MIC (S. aureus NRS384) | SMILES | solubility [1] | intracellular S. aureus killing (in words) [2] | Intracellular killing MIC [2]
1 |  | CCCC1O[C@@H]2C[C@H]3[C@@H]4C[C@H](F)C5=CC(=O)C=C[C@]5(C)[C@@]4(F)[C@@H](O)C[C@]3(C)C2(C(=O)CNC(=O)OCc2ccc(NC(=O)[C@H](CCCNC(N)=O)NC(=O)[C@@H](NC(=O)[C@@H](CCCCNC(=O)COC3CCCCCc4c3nnn4CC3OC4OC5C(CO)OC(OC6C(CO)OC(OC7C(CO)OC(OC8C(CO)OC(OC9C(CO)OC(OC3C(O)C4O)C(O)C9O)C(O)C8O)C(O)C7O)C(O)C6O)C(O)C5O)NC(=O)CCOCCOCCOCCOCCNC(=O)CCC(=O)N3Cc4ccccc4C#Cc4ccccc43)C(C)C)cc2)O1 (stereo partly shown) [LP14] | 26 µg/mL (≈ 9.64 µM) |  | 
2 | 0.041 µM | CO[C@H]1/C=C/O[C@@]2(C)Oc3c(C)c(O)c4c(=O)c(c5oc6cc(OC7CCNCC7)ccc6nc-5c4c3C2=O)NC(=O)/C(C)=C\C=C\[C@H](C)[C@H](O)[C@@H](C)[C@@H](O)[C@@H](C)[C@H](OC(C)=O)[C@@H]1C [R14] |  | increased intracellular S. aureus killing capacity compared to rifampicin | 1.0E−06
3 |  | CCCC1O[C@@H]2C[C@H]3[C@@H]4C[C@H](F)C5=CC(=O)C=C[C@]5(C)[C@@]4(F)[C@@H](O)C[C@]3(C)[C@]2(C(=O)CNC(=O)OCc2ccc(NC(=O)[C@H](CCCNC(N)=O)NC(=O)[C@@H](NC(=O)CCOCCOCCOCCOCCNC(=O)CCC(=O)N3Cc4ccccc4C#Cc4ccccc43)C(C)C)cc2)O1 (stereo partly shown) [LP13] | 20 µg/mL (≈ 14.2 µM) |  | 
4 | 0.37 µM | CO[C@H]1/C=C/O[C@@]2(C)Oc3c(C)c(O)c4c(=O)c(c5n(C)c6cc(O)ccc6nc-5c4c3C2=O)NC(=O)/C(C)=C\C=C\[C@H](C)[C@H](O)[C@@H](C)[C@@H](O)[C@@H](C)[C@H](OC(C)=O)[C@@H]1C [R1d, Rifamycin 4-OH-Phenol N-Methyl Analogs] |  |  | >1.0E−06
5 | 0.0015 µM | CO[C@H]1/C=C/O[C@@]2(C)Oc3c(C)c(O)c4c(=O)c(c5oc6cc(OCCN(C)C)ccc6nc-5c4c3C2=O)NC(=O)/C(C)=C\C=C\[C@H](C)[C@H](O)[C@@H](C)[C@@H](O)[C@@H](C)[C@H](OC(C)=O)[C@@H]1C [R16a] |  | increased intracellular S. aureus killing capacity compared to rifampicin; also recorded: highest activity | 4.0E−08
